The text below walks through data of patent US10143668B2, “Hydroxy-substituted amino and ammonium derivatives and their medical use” (GRI BIO, INC., priority 2011, dated 2018).

Data set [1] relates to local lymph node reaction. Put plainly: Local lymph node weight and cell count after TDI challenge. The settings on record: topical, diflorasone 0.1% and 0.5%, 1a 2% or 6%. Here is the method: Directly after sacrifice, the ear draining lymph node (Ln. auricularis) was prepared and excised. Organ weight was determined by means of an analytical balance (Kern, Balingen, Germany). Single cell suspensions were prepared by means of a glass potter (VWR, Darmstadt, Germany) and cells were counted with a hemocytometer (Neubauer, VWR, Germany).
One of the most undesirable side-effects of corticosteroid administration is immunosuppression, which leads to the inability to effectively address parasitic infection, wound healing and tumor growth. In the current study, the local lymph node reaction after TDI challenge (lymph node weight and cell number) was determined to assess the response of immune organs.

Data set [2] concerns allergic contact dermatitis response in mice. Put plainly: Allergic contact dermatitis (TDI) model in mice, mouse ear swelling test. Format: in vivo. The settings on record: topical, 2 h before challenge. How it is done: The anti-inflammatory and anti-allergic effects of compound 1a were assessed in a mouse model of allergic contact dermatitis, a response driven primarily by T helper type 2 (Th2) cells. […] In this model, an allergic dermatitis response is obtained by sensitizing mice to TDI and subsequently challenging them with antigen by topical administration onto the ears. A quantitative assessment of anti-inflammatory and anti-allergic effects of topically or orally administered test compounds is possible by measuring the resulting ear swelling.
Female BALB/c-mice were obtained from Charles River (Sulzfeld, Germany) at age 8 weeks. All animals were housed in groups of eight per cage at 22° C. with a 12 h light/dark-cycle. Water and a standard diet (Altromin, Lage/Lippe, Germany) were available ad libitum. All animals were acclimatized for one week before experimental procedures were commenced.
Experimental procedures for BALB/c mice housing, TDI sensitization and challenge, and measurement of ear thickness were performed as previously described (Baumer et al., J Pharm Pharmacol. 55:1107-1114 (2003)) with the following modifications. For active sensitization, 100 μL of 5% (w/v) TDI was administered to the shaved and stripped abdominal epidermis on day one, and for the next three consecutive days, 50 μL of 5% (w/v) TDI was applied. The allergic reaction was boosted 21 days later by application of 50 μL of 0.5% (w/v) TDI. For the examination of test compound effects, the left ears were used for the TDI challenge (20 μL of 0.5% in acetone) and ear thickness measured 3 h before and 24 h after challenge.
Administration time: to determine optimal time for administration treatment groups were treated orally by gavage with 100 mg/kg of compound 1a (suspended in 0.5% tylose, 10 mL/kg) 1, 4 or 16 h before topical TDI challenge. One group was treated with 100 mg/kg miltefosine orally, 16 h before challenge (based on available data for optimal administration time for miltefosine) and vehicle treated mice received tylose (10 mL/kg) orally, 4 h before challenge.
Comparison with dexamethasone: one group of mice was treated orally with compound 1a at 100 mg/kg suspended in 0.5% tylose, 4 h before topical TDI challenge. Vehicle treated mice received 0.5% tylose orally 4 h before challenge. As a positive control, dexamethasone was administered in saline solution at 1 mg/kg or 3 mg/kg, 2 h and 30 min before challenge and 1 h after challenge. The dose and dosing scheme for dexamethasone was based on previous experience showing a maximal effect in this model.
[…] The solution was applied, 2 h before topical TDI challenge by administration of 10 μl onto each of the inner and outer surfaces of the left ears. A vehicle group (n=5) was treated with propyleneglycol. As a positive control, diflorasone diacetate was administered at 0.01% (low dose) and 0.05% (high dose) in 20 μl acetone, 2 h before challenge. A basal control group was left untreated.
Mean and standard error of the mean (SEM) were calculated from individual ear edema values. Statistical evaluation was a one-way analysis of variance (ANOVA) (if the test for normal distribution was passed) or the Kruskal-Wallis one-way ANOVA on Ranks (if the normal distribution test failed). Both were followed by a post-hoc test (Dunnett's method or Dunn's test, respectively). A p<0.05 was considered to be significant.

Marks after values point to notes of the source that are not given here.

In the case of `CC(=O)OCC(=O)[C@@]1(OC(C)=O)[C@@H](C)C[C@H]2[C@@H]3C[C@H](F)C4=CC(=O)C=C[C@]4(C)[C@@]3(F)[C@@H](O)C[C@@]21C` [Diflorasone, diflorasone diacetate, reference compound], the “local lymph node reaction (lymph node weight and cell number)” value in data set [1] is recorded as “highly significant reduction”. For the same compound, the “Inhibition of mouse ear swelling” value in data set [2] (0.1%) was 101.1*** %; in data set [2] (0.5%) it was 110.8*** %.
